In patent US8889671B2, “Compounds and methods for treating bacterial infections” (AstraZeneca AB, priority 2013, dated 2014) one finds MIC and IC50 data, which are given here for 9 compounds.

Each structure is given as a SMILES string. Values after ≈ are worked out from the molar mass of the structure shown. Where two headings read alike, the source gives them in different places.

The test system of one assay is Staphylococcus aureus. Description: Susceptibility testing (MIC) Assay 1, broth microdilution. In kind it is cell-based. The conditions noted are these: Staphylococcus aureus. (Broth dilution looks for growth in wells or tubes with falling amounts of substance.)
In another assay the test system is Streptococcus pneumoniae. The description is as above. In kind it is cell-based.
The test system of another assay is Streptococcus pyogenes. The assay is described as above. In kind it is cell-based. The settings on record: Streptococcus pyogenes, Streptococcus pyrgenes, in vivo strain; read-out: Spy MIC.
Another assay relates to Escherichia coli. Description: Susceptibility testing (MIC) Assay 2, broth microdilution. The conditions noted are these: K12, read-out: Eco MIC. Type of assay: cell-based.
The test system of a further assay is Haemophilus influenzae. Described as above. In kind it is cell-based. The settings on record: ATCC51907, Haemophilus influenzae, ATCC 51907, in vivo strain, read-out: Hin MIC.
The subject of a further assay is Pseudomonas aeruginosa. The assay is described as above. The conditions noted are these: PAO1, read-out: Pae MIC. In kind it is cell-based.
For another assay, the system named is Klebsiella pneumoniae. The description is as above. Type of assay: cell-based. The conditions noted are these: clinical isolate, mucoid, read-out: Kpn MIC.
For assay [1], the target named is Escherichia coli DNA gyrase A/B tetramer (Escherichia coli (strain K12), UniProt P0AES4+P0AES6). The assay can be described thus: DNA gyrase supercoiling activity fluorescence polarisation assay. In kind it is biochemical. The conditions noted are these: Eco Gyr FP Mean IC50, E. coli DNA gyrase supercoiling, 0.3 mM ATP. In short, it runs like this: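 Relaxed triplex-forming plasmid (130 micrograms/mL) supercoiled by 5 nM gyrase A/B tetramer in Tris-HCl pH 7.5 buffer with 4 mM MgCl2 and 0.3 mM ATP, ~30 min, ambient temperature. Quenched with 5′-BODIPY-FL triplex probe at pH 3.5; fluorescence anisotropy read after 60 min. IC50 by nonlinear regression against two control reactions.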

The mark [2] stands for this setting: Staphylococcus aureus in vivo strain, MSQS, read-out: Sau(d) MIC.
Setting [3] is: in vivo strain, MRQR, read-out: Sau(e) MIC.
Setting [4] is: in vivo strain (footnote b), read-out: Spn(b) MIC.
[5] abbreviates: in vivo strain (footnote c), read-out: Spn(c) MIC.

One may read the IC50 as the midpoint of a concentration-inhibition curve. Turning to `C[C@@H]1CN2c3c(cc4c(N5C(=O)OC[C@H]5CN=[N+]=[N-])noc4c3F)CC3(C(=O)NC(=O)NC3=O)[C@H]2[C@H](C)O1` [Example 47, (2R,4S,4aS)-8-((R)-4-(Azidomethyl)-2-oxooxazolidin-3-yl)-11-fluoro-2,4-dimethyl-2,4,4a,6-tetrahydro-1H,1′H-spiro[isoxazolo[4,5-g][1,4]oxazino[4,3-a]quinoline-5,5′-pyrimidine]-2′,4′,6′(3′H)-trione], the MIC in the assay on Staphylococcus aureus (setting [2]) was below 0.2 µM; in the assay on Staphylococcus aureus (setting [3]), 0.78 µM (≈ 0.412 µg/mL); in the assay on Staphylococcus aureus (serum, read-out: Sau(f) MIC), 0.78 µM (≈ 0.412 µg/mL); with Streptococcus pneumoniae (setting [4]), 0.39 µM (≈ 0.206 µg/mL); with Streptococcus pneumoniae (setting [5]), 0.55 µM (≈ 0.291 µg/mL); in the assay on Streptococcus pyogenes it was 0.279 µM (≈ 0.147 µg/mL). In addition, the MIC in the assay on Escherichia coli is 25 µM (≈ 13.2 µg/mL); with Haemophilus influenzae, 0.78 µM (≈ 0.412 µg/mL); with Pseudomonas aeruginosa, above 200 µM; with Klebsiella pneumoniae, 200 µM (≈ 106 µg/mL). The same compound gave an IC50 in assay [1] of 150 nM.
For the compound `C[C@@H]1CN(c2noc3c(F)c4c(cc23)CC2(C(=O)NC(=O)NC2=O)[C@H]2[C@H](C)O[C@H](C)CN42)C(=O)O1` [Example 4, (2R,4S,4aS)-11-Fluoro-2,4-dimethyl-8-[(5R)-5-methyl-2-oxo-1,3-oxazolidin-3-yl]-1,2,4,4a-tetrahydro-2′H,6H-spiro[1,4-oxazino[4,3-a][1,2]oxazolo[4,5-g]quinoline-5,5′-pyrimidine]-2′,4′,6′(1′H,3′H)-trione], the MIC in the assay with Staphylococcus aureus (setting [2]) was 0.25 µM (≈ 0.122 µg/mL); with Staphylococcus aureus (setting [3]), 0.67 µM (≈ 0.327 µg/mL); in the assay on Staphylococcus aureus (serum, read-out: Sau(f) MIC), 0.47 µM (≈ 0.229 µg/mL); in the assay with Streptococcus pneumoniae (setting [4]), 0.42 µM (≈ 0.205 µg/mL); in the assay with Streptococcus pneumoniae (setting [5]), 0.46 µM (≈ 0.224 µg/mL); with Streptococcus pyogenes, 0.36 µM (≈ 0.175 µg/mL). Moreover, the MIC in the assay with Escherichia coli is 9.9 µM (≈ 4.83 µg/mL); with Haemophilus influenzae it was 0.47 µM (≈ 0.229 µg/mL); in the assay on Pseudomonas aeruginosa it was above 200 µM; in the assay with Klebsiella pneumoniae, 200 µM (≈ 97.5 µg/mL). In addition, in assay [1], inhibition was half-maximal at 390 nM (IC50).
On to `COCCOC[C@H]1COC(=O)N1c1noc2c(F)c3c(cc12)CC1(C(=O)NC(=O)NC1=O)[C@H]1[C@H](C)O[C@H](C)CN31` [Example 50, (2R,4S,4aS)-11-Fluoro-8-{(4S)-4-[(2-methoxyethoxy)methyl]-2-oxo-1,3-oxazolidin-3-yl}-2,4-dimethyl-1,2,4,4a-tetrahydro-2′H,6H-spiro[1,4-oxazino[4,3-a][1,2]oxazolo[4,5-g]quinoline-5,5′-pyrimidine]-2′,4′,6′(1′H,3′H)-trione], for which the MIC with Staphylococcus aureus (setting [2]) stood at 1.6 µM (≈ 0.898 µg/mL); in the assay with Staphylococcus aureus (setting [3]), 3.1 µM (≈ 1.74 µg/mL); in the assay with Staphylococcus aureus (serum, read-out: Sau(f) MIC), 1.6 µM (≈ 0.898 µg/mL); in the assay on Streptococcus pneumoniae (setting [4]), 1.6 µM (≈ 0.898 µg/mL); in the assay with Streptococcus pneumoniae (setting [5]), 1.6 µM (≈ 0.898 µg/mL); with Streptococcus pyogenes, 1.6 µM (≈ 0.898 µg/mL). Moreover, the MIC in the assay on Escherichia coli is 200 µM (≈ 112 µg/mL); with Haemophilus influenzae, 3.1 µM (≈ 1.74 µg/mL); in the assay on Pseudomonas aeruginosa it was above 200 µM; in the assay on Klebsiella pneumoniae, above 200 µM. The same compound came in with an IC50 in assay [1] of 200 nM.
For the compound `C[C@@H]1CN2c3c(cc4c(N5C(=O)OC[C@H]5CF)noc4c3F)CC3(C(=O)NC(=O)NC3=O)[C@H]2[C@H](C)O1` [Example 16, (2R,4S,4aS)-11-Fluoro-8-[(4S)-4-(fluoromethyl)-2-oxo-1,3-oxazolidin-3-yl]-2,4-dimethyl-1,2,4,4a-tetrahydro-2′H,6H-spiro[1,4-oxazino[4,3-a][1,2]oxazolo[4,5-g]quinoline-5,5′-pyrimidine]-2′,4′,6′(1′H,3′H)-trione], the MIC in the assay with Staphylococcus aureus (setting [2]) was 0.39 µM (≈ 0.197 µg/mL); with Staphylococcus aureus (setting [3]) it was 1.6 µM (≈ 0.809 µg/mL); with Staphylococcus aureus (serum, read-out: Sau(f) MIC), 1.6 µM (≈ 0.809 µg/mL); with Streptococcus pneumoniae (setting [4]), 0.39 µM (≈ 0.197 µg/mL); in the assay on Streptococcus pneumoniae (setting [5]) it was 0.39 µM (≈ 0.197 µg/mL); in the assay on Streptococcus pyogenes, 0.39 µM (≈ 0.197 µg/mL). For the same compound, the MIC in the assay on Escherichia coli is 25 µM (≈ 12.6 µg/mL); in the assay on Haemophilus influenzae, 0.78 µM (≈ 0.394 µg/mL); with Pseudomonas aeruginosa, above 200 µM; in the assay with Klebsiella pneumoniae, 200 µM (≈ 101 µg/mL). Also, in assay [1], inhibition was half-maximal at 190 nM (IC50).
Take `C[C@@H]1CN2c3c(cc4c(N5CCOC5=O)noc4c3F)CC3(C(=O)NC(=O)NC3=O)[C@H]2[C@H](C)O1` [Example 1, (2R,4S,4aS)-11-Fluoro-2,4-dimethyl-8-(2-oxo-1,3-oxazolidin-3-yl)-1,2,4,4a-tetrahydro-2′H,6H-spiro[1,4-oxazino[4,3-a][1,2]oxazolo[4,5-g]quinoline-5,5′-pyrimidine]-2′,4′,6′(1′H,3′H)-trione]: the MIC was determined as 0.39 µM (≈ 0.185 µg/mL) in the assay on Staphylococcus aureus (setting [2]); 3.1 µM (≈ 1.47 µg/mL) with Staphylococcus aureus (setting [3]); 0.78 µM (≈ 0.369 µg/mL) with Staphylococcus aureus (serum, read-out: Sau(f) MIC); 0.78 µM (≈ 0.369 µg/mL) in the assay on Streptococcus pneumoniae (setting [4]); 0.78 µM (≈ 0.369 µg/mL) in the assay with Streptococcus pneumoniae (setting [5]); 0.39 µM (≈ 0.185 µg/mL) in the assay with Streptococcus pyogenes. For the same compound, the MIC was 50 µM (≈ 23.7 µg/mL) in the assay with Escherichia coli, 0.78 µM (≈ 0.369 µg/mL) in the assay with Haemophilus influenzae, above 200 µM with Pseudomonas aeruginosa and above 200 µM in the assay on Klebsiella pneumoniae. For the same compound, it took 1300 nM to reach half-maximal inhibition in assay [1] (IC50).
As to `CC[C@@H]1COC(=O)N1c1noc2c(F)c3c(cc12)CC1(C(=O)NC(=O)NC1=O)[C@H]1[C@H](C)O[C@H](C)CN31` [Example 7], the MIC is 6.2 µM (≈ 3.11 µg/mL) with Staphylococcus aureus (setting [2]); 12 µM (≈ 6.02 µg/mL) in the assay with Staphylococcus aureus (setting [3]); 25 µM (≈ 12.5 µg/mL) in the assay on Staphylococcus aureus (serum, read-out: Sau(f) MIC); 25 µM (≈ 12.5 µg/mL) in the assay on Streptococcus pneumoniae (setting [4]); 12 µM (≈ 6.02 µg/mL) with Streptococcus pneumoniae (setting [5]); 6.2 µM (≈ 3.11 µg/mL) with Streptococcus pyogenes. Besides, the MIC was 200 µM (≈ 100 µg/mL) in the assay with Escherichia coli, 12 µM (≈ 6.02 µg/mL) in the assay on Haemophilus influenzae, above 200 µM in the assay on Pseudomonas aeruginosa and above 200 µM in the assay on Klebsiella pneumoniae. The IC50 in assay [1] turned out to be 9700 nM.
`CCOC[C@H]1COC(=O)N1c1noc2c(F)c3c(cc12)CC1(C(=O)NC(=O)NC1=O)[C@H]1[C@H](C)O[C@H](C)CN31` [Example 49, (2R,4S,4aS)-8-[(4S)-4-(Ethoxymethyl)-2-oxo-1,3-oxazolidin-3-yl]-11-fluoro-2,4-dimethyl-1,2,4,4a-tetrahydro-2′H,6H-spiro[1,4-oxazino[4,3-a][1,2]oxazolo[4,5-g]quinoline-5,5′-pyrimidine]-2′,4′,6′(1′H,3′H)-trione]: the MIC came to 0.39 µM (≈ 0.207 µg/mL) with Staphylococcus aureus (setting [2]); 0.78 µM (≈ 0.415 µg/mL) with Staphylococcus aureus (setting [3]); 0.78 µM (≈ 0.415 µg/mL) in the assay with Staphylococcus aureus (serum, read-out: Sau(f) MIC); 0.78 µM (≈ 0.415 µg/mL) in the assay on Streptococcus pneumoniae (setting [4]); 1.6 µM (≈ 0.85 µg/mL) in the assay on Streptococcus pneumoniae (setting [5]); 0.78 µM (≈ 0.415 µg/mL) in the assay on Streptococcus pyogenes. The MIC with Escherichia coli is 50 µM (≈ 26.6 µg/mL); in the assay on Haemophilus influenzae, 1.6 µM (≈ 0.85 µg/mL); with Pseudomonas aeruginosa, above 200 µM; in the assay on Klebsiella pneumoniae it was above 200 µM. In assay [1], this compound showed an IC50 of 380 nM.
Consider `CON=C[C@H]1CN(c2noc3c(F)c4c(cc23)CC2(C(=O)NC(=O)NC2=O)[C@H]2[C@H](C)O[C@H](C)CN42)C(=O)O1` [Example 43], for which the MIC with Staphylococcus aureus (setting [2]) is 0.39 µM (≈ 0.207 µg/mL); in the assay with Staphylococcus aureus (setting [3]), 0.78 µM (≈ 0.414 µg/mL); in the assay with Staphylococcus aureus (serum, read-out: Sau(f) MIC) it was 1.6 µM (≈ 0.849 µg/mL); in the assay with Streptococcus pneumoniae (setting [4]), 0.78 µM (≈ 0.414 µg/mL); with Streptococcus pneumoniae (setting [5]), 1.6 µM (≈ 0.849 µg/mL); with Streptococcus pyogenes, 0.78 µM (≈ 0.414 µg/mL). For the same compound, the MIC in the assay on Escherichia coli is 50 µM (≈ 26.5 µg/mL); in the assay on Haemophilus influenzae, 1.6 µM (≈ 0.849 µg/mL); in the assay on Pseudomonas aeruginosa, above 100 µM; with Klebsiella pneumoniae, above 100 µM. The compound also returned an IC50 in assay [1] of 440 nM.
For `C[C@@H]1CN2c3c(cc4c(N5CC(C)(C)OC5=O)noc4c3F)CC3(C(=O)NC(=O)NC3=O)[C@H]2[C@H](C)O1` (racemic) [Example 12, (2R,4S,4aS)-8-(5,5-Dimethyl-2-oxo-1,3-oxazolidin-3-yl)-11-fluoro-2,4-dimethyl-1,2,4,4a-tetrahydro-2′H,6H-spiro[1,4-oxazino[4,3-a][1,2]oxazolo[4,5-g]quinoline-5,5′-pyrimidine]-2′,4′,6′(1′H,3′H)-trione], the MIC worked out at 1.6 µM (≈ 0.802 µg/mL) in the assay on Staphylococcus aureus (setting [2]); 3.1 µM (≈ 1.55 µg/mL) in the assay with Staphylococcus aureus (setting [3]); 25 µM (≈ 12.5 µg/mL) with Staphylococcus aureus (serum, read-out: Sau(f) MIC); 6.2 µM (≈ 3.11 µg/mL) with Streptococcus pneumoniae (setting [4]); 6.2 µM (≈ 3.11 µg/mL) in the assay with Streptococcus pneumoniae (setting [5]); 3.1 µM (≈ 1.55 µg/mL) with Streptococcus pyogenes. The MIC with Escherichia coli is 100 µM (≈ 50.1 µg/mL); in the assay with Haemophilus influenzae, 3.1 µM (≈ 1.55 µg/mL); in the assay with Pseudomonas aeruginosa, above 200 µM; with Klebsiella pneumoniae, above 200 µM. Also, the IC50 in assay [1] is 3200 nM.
